Where two headings read alike, the source gives them in different places.
How the values were obtained:
[1] = Pharmacokinetic study, 3-period crossover, plasma concentrations of Compound A by LC-MS/MS; format: in vivo, human; details: for AUC(0-inf) / AUC(0-t): human, plasma, oral, 50 mg, pediatric formulation, 50 mg single dose; for AUC(0-inf): read-out: AUC0-inf, mean; for AUC(0-t): read-out: AUC0-t, mean
Procedure: (§1) In this single center, open-label, randomized study, 24 subjects (8 per each arm) received Compound A adult immediate release tablet or granular formulation suitable for reconstitution formulation in a fasted or fed state (high fat meal) in a 3-period, 3-sequence crossover design. Compound A was formulated as a granular formulation suitable for reconstitution (“Compound A pediatric formulation”) as described herein.
(§2) A 50 mg dose was used in this adult PK study.
For each study period, subjects received one of the 3 following treatments:
(§3) Treatment A: Single doses of 50 mg Compound A pediatric formulation (1 sachet of granules) under fed conditions.
(§4) Treatment B: Single doses of 50 mg Compound A pediatric formulation (1 sachet of granules) under fasting conditions.
(§5) Treatment C: Single doses of 50 mg Compound A adult tablet formulation (1×50 mg IR tablet) under fasting conditions.
Three groups of 8 subjects were randomized to one of the following 3 sequences.
Following an overnight fast of at least 10 hours, subjects received a standardized high-fat, high calorie meal 30 minutes before administration. Subjects must have eaten the total content of this meal in 30 minutes or less.
Thirty minutes after the start of breakfast, subjects were administered the suspension (the contents of one sachet of the Compound A pediatric formulation [granules for oral suspension] was mixed thoroughly with 120 mL of water at ambient temperature). Thereafter, the glass was rinsed twice with approximately 60 mL of water at ambient temperature and the subject was asked to drink the 60 mL of suspension each time. A total of approximately 240 mL of water was administered with the formulation within 5 minutes.
Additional food was then withheld for at least 4 hours following administration. Water was provided as needed until 1 hour pre-dose. Water was allowed beginning 1 hour after the administration of the drug.
Subjects fasted overnight for a minimum of 10 hours prior to dosing.
Subjects were administered the Compound A suspension (the contents of one sachet [granules for oral suspension] was mixed thoroughly with 120 mL of water at ambient temperature). Thereafter, the glass was rinsed twice with approximately 60 mL of water at ambient temperature and the subject was asked to drink the 60 mL of suspension each time. A total of approximately 240 mL of water was administered with the formulation within 5 minutes.
Fasting continued for at least 4 hours following Compound A administration. Water was provided as needed until 1 hour pre-dose. Water was allowed beginning 1 hour after the administration of the drug.
A single dose of the Compound A IR tablet was administered with approximately 240 mL of water, starting at 09:00, to 1 subject per 2 minute intervals.
Fasting continued for at least 4 hours following administration. Water was provided as needed until 1 hour pre-dose. Water was allowed beginning 1 hour after the administration of the drug.
Serial PK samples were obtained pre-dose and at specific timepoints through 48 h post-dose Plasma concentrations of Compound A were determined using validated liquid chromatography with tandem mass spectrometry method.

[2] = Pharmacokinetic study, urinary excretion of unchanged Compound A; format: in vivo, human; details: for CL renal: human, urine, oral, 50 mg
Procedure: as §1, §2, §3, §4, §5
Overall (based on data from Cohorts 1 and 2), the fraction excreted in urine is less than 0.1%, thus the contribution of the urinary excretion in the disposition and elimination of the Compound A as a parent compound is negligible. The PK and statistical analysis were performed including all subjects with measurable pre-dose concentrations.

[3] = pediatric formulation 50 mg, fed vs fasted

AUC(0-inf) ([1]; fasting): 11.3 µg·h/mL
AUC(0-t) ([1]; fasting): 11.1 µg·h/mL
AUC(0-inf) ([1]; fed (high-fat meal)): 11.8 µg·h/mL
AUC(0-t) ([1]; fed (high-fat meal)): 11.7 µg·h/mL
intra-subject CV % for AUC0-inf [1, 3]: 9%
intra-subject CV % for AUC0-t [1, 3]: 11%
GMR for AUC0-inf ([1]; pediatric formulation 50 mg, fed vs fasted, 90% CI 97.98-107.58%): 102.67%
GMR for AUC0-t ([1]; pediatric formulation 50 mg, fed vs fasted, 90% CI 98.23-109.57%): 103.74%
CL renal ([2]; pediatric formulation 50 mg, fasting): 0.05 mL/min
CL renal ([2]; pediatric formulation 50 mg, fed): 0.055 mL/min
fraction excreted in urine ([2]; overall, based on data from Cohorts 1 and 2): less than 0.1%
GMR for CLr ([2]; pediatric formulation 50 mg, fed vs fasting): 115.56%
SMILES: Cc1cc(S(=O)(=O)Nc2cscn2)c(F)cc1N(C)[C@H]1CCN(Cc2ccccc2)C1 [Compound A, (S)-4-((1-benzylpyrrolidin-3-yl)(methyl)amino)-2-fluoro-5-methyl-N-(thiazol-4-yl)benzenesulfonamide]

Source: US20230404913A1, “PHARMACEUTICAL FORMULATIONS FOR TREATING DISEASES ASSOCIATED WITH VOLTAGE-GATED SODIUM CHANNELS” (Xenon Pharmaceuticals, Inc., priority 2020, published 2023)
